Results on one molecule are retold here after publication PMC3759295 (Toxicology letters, 2013).

In data set [1] the test system is CYP1A1 protein in primary human hepatocytes. Briefly: CYP1A1 protein in primary human hepatocytes. Conditions: four different primary human hepatocytes cultures.
Data set [2] deals with T1, AhR (Homo sapiens, UniProt P35869).
T1 sequence (P35869 11-848): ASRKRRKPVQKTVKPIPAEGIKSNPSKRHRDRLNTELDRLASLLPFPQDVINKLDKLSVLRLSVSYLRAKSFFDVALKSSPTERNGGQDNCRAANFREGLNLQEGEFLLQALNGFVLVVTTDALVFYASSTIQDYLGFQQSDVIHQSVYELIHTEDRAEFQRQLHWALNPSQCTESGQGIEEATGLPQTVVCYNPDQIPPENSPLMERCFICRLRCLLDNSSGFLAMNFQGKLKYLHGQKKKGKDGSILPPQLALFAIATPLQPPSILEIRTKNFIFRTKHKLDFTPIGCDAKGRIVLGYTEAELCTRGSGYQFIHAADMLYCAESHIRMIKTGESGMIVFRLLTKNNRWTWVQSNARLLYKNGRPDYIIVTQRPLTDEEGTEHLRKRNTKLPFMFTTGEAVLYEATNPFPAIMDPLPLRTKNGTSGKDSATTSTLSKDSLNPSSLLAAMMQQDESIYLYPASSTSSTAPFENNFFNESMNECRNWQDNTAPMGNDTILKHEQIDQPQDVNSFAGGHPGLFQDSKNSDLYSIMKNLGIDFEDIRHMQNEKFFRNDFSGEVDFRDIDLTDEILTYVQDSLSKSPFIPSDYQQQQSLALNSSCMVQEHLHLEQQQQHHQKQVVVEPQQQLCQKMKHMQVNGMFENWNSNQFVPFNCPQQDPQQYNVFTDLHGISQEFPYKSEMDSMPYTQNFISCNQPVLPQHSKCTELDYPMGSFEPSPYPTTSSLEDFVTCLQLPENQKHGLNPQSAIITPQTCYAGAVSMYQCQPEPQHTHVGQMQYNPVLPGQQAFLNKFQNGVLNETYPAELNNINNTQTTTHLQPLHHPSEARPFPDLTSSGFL
The experiment in a line: Gene reporter assay, transcriptional activity of AhR in AZ-AHR reporter cells. As to conditions: 10 µM and 50 µM, 24 h.

The target of data set [3] is T2, AhR (Cavia porcellus, UniProt Q6J287).
T2 sequence (Q6J287 1-846): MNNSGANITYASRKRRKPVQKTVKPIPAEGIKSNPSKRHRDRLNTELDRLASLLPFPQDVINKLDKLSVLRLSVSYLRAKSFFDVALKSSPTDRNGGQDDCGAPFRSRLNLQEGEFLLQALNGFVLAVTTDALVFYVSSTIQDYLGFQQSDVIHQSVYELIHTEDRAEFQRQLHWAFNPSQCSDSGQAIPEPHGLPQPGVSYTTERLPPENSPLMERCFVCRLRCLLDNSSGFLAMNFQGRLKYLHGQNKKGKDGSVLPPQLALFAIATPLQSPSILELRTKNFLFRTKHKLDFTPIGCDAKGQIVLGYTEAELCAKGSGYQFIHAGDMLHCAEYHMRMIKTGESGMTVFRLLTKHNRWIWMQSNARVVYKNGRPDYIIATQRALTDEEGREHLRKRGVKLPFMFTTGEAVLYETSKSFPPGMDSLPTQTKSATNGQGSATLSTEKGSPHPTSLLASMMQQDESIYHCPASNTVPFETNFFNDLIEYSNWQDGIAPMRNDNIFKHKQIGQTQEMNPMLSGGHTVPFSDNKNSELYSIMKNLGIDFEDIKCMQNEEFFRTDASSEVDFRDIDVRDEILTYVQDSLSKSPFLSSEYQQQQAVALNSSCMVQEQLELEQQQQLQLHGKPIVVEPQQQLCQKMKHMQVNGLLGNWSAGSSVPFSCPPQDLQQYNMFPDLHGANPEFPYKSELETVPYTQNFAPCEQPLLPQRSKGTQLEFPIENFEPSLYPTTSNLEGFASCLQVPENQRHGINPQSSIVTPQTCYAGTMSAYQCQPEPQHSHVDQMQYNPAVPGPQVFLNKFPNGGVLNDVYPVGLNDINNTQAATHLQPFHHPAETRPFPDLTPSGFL
As to conditions: any tested concentration, 2 nM [3H]TCDD.

Data set [4] concerns CYP1A1 mRNA in HepG2 cells. Briefly: CYP1A1 mRNA expression in HepG2 cells. As to conditions: HepG2, 50 µM, 24 h.
Data set [5] has as its system CYP1A1 mRNA in LS174T cells. The experiment in a line: CYP1A1 mRNA expression in LS174T cells. Conditions: 50 µM, 24 h.
Another data set deals with CYP1A1 mRNA. The experiment in a line: CYP1A1 mRNA expression in primary human hepatocytes. The format is cell-based. As to conditions: human.
For data set [6], the system named is CYP1A1 mRNA in primary human hepatocytes. The description is as above. The format is cell-based. As to conditions: four different primary human hepatocytes cultures.
Where [7] appears, read: male, primary human hepatocytes (culture LH45).
Where [8] appears, read: male, primary human hepatocytes (culture LH46).

As a reminder, the fold induction is the signal under treatment as a multiple of the control signal. As for `OC[C@H]1O[C@@H](Oc2cc3c(O[C@@H]4O[C@H](CO)[C@@H](O)[C@H](O)[C@H]4O)cc(O)cc3[o+]c2-c2ccc(O)c(O)c2)[C@H](O)[C@@H](O)[C@@H]1O` [CYA-3, cyanidin-3,5-di-O-glucoside chloride], the “induction of CYP1A1 protein” value in data set [1] is on record as “Neither compound induced”. At AhR [2], the “induction of luciferase activity” value is listed as “concentration-dependent induction”. In addition, the “displacement of radiolabelled TCDD from AhR” value on AhR [3] is listed as “did not displace”. Also, the “level of CYP1A1 mRNA” value in data set [4] and in data set [5] was “significantly increased” each time. Further, the fold induction at 24 h, 50 µM was found to be 0.13 ± 0.03 in the data set with CYP1A1 mRNA (primary human hepatocytes (culture LH48 as printed)); 0.48 ± 0.07 in the data set with CYP1A1 mRNA (setting [7]); 2.59 ± 0.09 in the data set with CYP1A1 mRNA (setting [8]); 0.45 ± 0.03 with CYP1A1 mRNA (male, primary human hepatocytes (culture LH47)). Besides, the figures for the fold induction at 24 h, 10 µM in the data set with CYP1A1 mRNA (setting [7]) and in the data set with CYP1A1 mRNA (setting [8]) were 0.68 ± 0.2 and 2.21 ± 0.16, respectively. Further, the “induction of CYP1A1 mRNA” value in data set [6] is “Neither compound induced”.
